The source of these data is patent US12594255B2, “Lipids with odd number of carbon atoms and their use as pharmaceutical composition or nutritional supplement” (SunRegen Healthcare AG, priority 2016, dated 2026).

Assay type in all cases: cell-based
The test system of data set [1] is mouse primary cortical neurons challenged with Aβ1-42 oligomers (AβO). Kind of data set: AβO-induced neurotoxicity, 48-h pre-incubation with test item, MTT assay. The following applies: for Neuroprotection (0.01 μM) / Neuroprotection (0.1 μM): added 48 hours before 1 μM AβO; for neuroprotective effect: 1 μM, 48-h preincubation before 1 μM AβO. Here is the method:
Mouse primary cortical neurons were pre-incubated for 48 h with vehicle, 0.05 μM DHA (used as positive control) or different concentrations of Compound C. Then, cortical neurons were treated for 24 h with vehicle (FIG. 1 left) or 1 μM AβO ([…]) and cell viability was determined using the MTT assay (n=3 determinations per condition, 1 independent experiment), Data are represented as % of vehicle control (Mean*SD). […]
(§1) Cortical neurons from embryonic day 16-17 are prepared from C57BL6/J mouse fetuses. In brief, dissociated cortical cells were plated (50.000 cells/well) in 48-well plates pre-coated with 1.5 μg/mL polyornithine (Sigma). Cells were cultured in a chemically defined Dulbecco's modified eagle's/F12 medium free of serum and supplemented with hormones, proteins and salts. Cultures were kept at 35° C. in a humidified 6% CO2 atmosphere. Mouse cortical neurons were exposed for 24 h to 1.0 μM AβO after a 48-h pre-incubation with vehicle or different concentrations of Compound C. The AβO-induced neurotoxicity was evaluated using the MTT assay.
All treatments were done in triplicates in 48-well plates. Cells were incubated with vehicle or 1 μM AβO in the absence or presence of different lipids at the indicated final concentrations) added at 48 hours before ADO. Cells were incubated with AβO for 24 h in a final volume of 140 μL per well.
For positive controls, cells are treated similarly (48 hours before AβO) in the presence of 0.05 μM DHA.
Following AβO-treatment, cell viability was measured using the MTT assay. Briefly, cells were incubated at 35° C. for 1 h with MTT (Sigma, Cat #M2128-10G. Lot #MKBH7489V). For that purpose, 14 μL of 5 mg/mL MITT (solubilized in PBS) were added in each well. After incubation, medium was removed and cells were lyzed with 150 μL DMSO for 10 minutes and protected from light. After complete solubilization of formazan, absorbance at 570 nm was recorded.
as §1, with “cells are” for “cells were”, “Cells are” for “Cells were”, “Cultures are” for “Cultures were”, “of herb B extracts.” for “of Compound C.”, “assay. […]” for “assay.”
A general note: Tetrazolium assays rely on reduction of a dye to a coloured formazan, in cell work by metabolically active cells.

For data set [2] the test system is unchanged. The data set is described as follows: AβO-induced neurotoxicity, test item added concomitantly (T0) or 3 h (T3) or 6 h (T6) after AβO, MTT assay. The following applies: 0.1 μM HNG added 3 or 6 h after AβO. Here is the method: Mouse primary cortical neurons were treated at 0 h (T0) with vehicle or 1 μM AβO, Different concentrations of Compound C or HNG (0.1 μM, used as positive control) were added concomitantly to AβO at 0 h (T0)), 3 h (T3) or 6 h (T6) after AβO. Then, cortical neurons were incubated for 24 h and cell viability was determined using the MTT assay (n=3 determinations per condition, 1 independent experiment). Data are represented as % of vehicle control (Mean±SD). […]
The aim of this study is to determine whether Compound C might present neuroprotective, anti-apoptotic and neuro-rescuing effects in in vitro AβO induced neuron death models. For that purpose, the neuro-protective effects of compound C at six concentrations were investigated using mouse primary cortical neurons challenged with Aβ1-42 oligomers (AβO) Compounds were added at different time points (concomitantly T0 with AβO and T3, or T6 after AβO) with the aim to identify rescuing effects or anti-apoptotic effects.
Cortical neurons from embryonic day 16-17 are prepared from C57Bl6/J mouse fetuses, as described in Example I-1.
Mouse cortical neurons were exposed for 24 h to 1.0 μM AβO. The AβO-induced neurotoxicity was evaluated using the MTT assay. […] (FIG. 4)
The percentage of neuroprotection and anti-apoptosis effects was defined as; (neuron viability of compound C group−neuron viability of toxin treated group)/(100−neuron viability of toxin treated group)×100%. The % of neuroprotection and anti-apoptotic effects of compound C at 1000 nM is 88.7%, 52.0%, 22.3%, at T0, T3, or T6, respectively. (FIG. 4) […]

In data set [3] the test system is human iPSC-derived neurons challenged with Aβ1-42 oligomers (AβO). The data set is described as follows: AβO-induced neuronal death in human iPSC-derived neurons, NSE ELISA assay. Here is the method: iPSCs were treated at 0 h (T0) with vehicle or 1 μM AβO. Different concentrations of Compound C or 0.1 μM HNG (used as positive control) were added concomitantly to AβO at 0 h (T0), 3 h (T3) or 6 h (T6) after AβO. Then, were incubated for 24 h and cell viability was determined using the NSE ELISA assay (n=6 determinations per condition, 1 independent experiment), Data are represented as % of vehicle control (Mean±SD). […]
To determine whether compound C might rescue neuronal death in human iPSC-derived neurons challenged with Aβ1-42 oligomers (AβO). In this cellular model, AβO induce a dramatic neuronal death that could be monitored by the level of neuronal specific enolase (NSE) using a specific ELISA assay. Compound C will be added at different time points (concomitantly and after AMBO) with the aim to identify rescuing effects.
Cells (HIP-Neuronal progenitors, GlobalStem, Cat #GSC-4312, Lot #20010260) are plated in 96-well plates at a density of 60.000 cells per well and culture. Before experiments, cells are matured for five weeks and kept at 37° C. in a humidified 5% CO2 atmosphere.
Cells are incubated with vehicle or 1 μM AβO in the absence or presence of different concentrations (i.e. 10, 100, 1000 and 10000 nM) of Compound C added concomitantly to AβO (T0), 3 h after AβO (T3), or 6 h after AβO (T6). Cells are incubated for 24 h in a final volume of 100 μL per well. For positive control, cells are treated similarly in the presence of 0.1 μM HNG (i.e. S14G variant of humanin peptide). In addition, neuronal loss is monitored using the detection of neuronal specific enolase (NSE) by ELISA assay according to supplier's recommendations (CloneCloud, Cat #SEA537Hu). A total of three data points per experimental condition will be generated here. […]
For orientation: ELISA stands for enzyme-linked immunosorbent assay.

In data set [4] the test system is mouse primary cortical neurons treated with 0.25 mM H2O2. Kind of data set: H2O2-induced neurotoxicity, test item added 48 hours before or 3 hours after H2O2, MTT assay.
In data set [5] the test system is mouse primary cortical neurons. The data set is described as follows: Axonal growth (MAP2 immunolabelling, axonal length). The following applies: 60 nM sAPPα; vehicle control 165.96±90.18 μm. Here is the method:
Mouse primary cortical neurons were pre-incubated for 48 h with vehicle, 60 nM sAPPα (used as positive control) or different concentrations of Compound C. Then, cortical neurons were treated for 24 h with vehicle. Data are represented as % of vehicle control (Mean±SD).
Cortical neurons from embryonic day 16-17 are prepared from C57Bl6/J mouse fetuses, as described in Example I-1. After 96-h incubation, axonal length is recorded. Briefly, cells were washed with ice-cold PBS and fixed with cold methanol. Following fixation, cells are immunolabelled using a specific antibody detecting total MAP2 protein. Antibodies to MAP2 are excellent markers on neuronal cells, their axons and neuronal dendrites. For quantification of axonal length, six independent images of labelled cells are captured using an inverted microscope. Pictures of cells are analyzed using Neuron-J software and axonal length is recorded manually. A minimum of 100 independent neurons are treated. The data are expressed as mean axonal length (expressed in μm) (Mean±SD). Statistical differences between vehicle-treated cells and cells treated with compounds are determined using a t-test.

Where “and” joins values, the source holds several entries; their conditions need not be identical. Equal values may be shown once.

Consider `CCCCCCCCCCCCCCCCCCC(=O)O` [GG09, Nonadecanoic acid], for which, in data set [1], the “Neuroprotection (0.01 μM)” value stood at 31.2%, the “Neuroprotection (0.1 μM)” value turned out to be 25.9% and the neuroprotective effect result is listed as “lost neuroprotective effect”.

Turning to `CCCCCCCCCCCCCCCCC(=O)O` [GG07, Heptadecanoic acid], in data set [1], the “Neuroprotection (0.01 μM)” value is given as 27.4%, the “Neuroprotection (0.1 μM)” value is recorded as 21.4% and the neuroprotective effect result was “lost neuroprotective effect”.

In the case of `CCCCCCCCCCCCCCC(=O)O` [GG05, Pentadecanoic acid], in data set [1], the “Neuroprotection (0.01 μM)” value is 21.9%, the “Neuroprotection (0.1 μM)” value came to 14.0% and the neuroprotective effect result was “lost neuroprotective effect”.

As to `CC/C=C\C/C=C\C/C=C\C/C=C\C/C=C\C/C=C\CCC(=O)O` [DHA, Docosahexaenoic acid, reference compound], the remaining cell viability in data set [1] (0.05 μM DHA, 48 h pre-incubation, then 1 μM AβO 24 h) is 82.0±2.6 % of control and 90.9±3.1 % of control.

On to “HNG: S14G variant of humanin peptide, positive control, well-known antiapoptotic peptide (MAPRGFSCLLLLTGEIDLPVKRRA; UniProt Q8IVG9 1-24, looked up, variant S14G) [reference compound]”, for which the “prevention of AβO-induced cell death” value in data set [2] and in data set [3] (0.1 μM HNG added 3 or 6 h after AβO) was “did not prevent cell death” throughout. Moreover, in data set [3] (0.1 μM HNG added at T0 with 1 μM AβO, 24 h), the neuron viability was 85.3±15.6 % of control and 85.3±5.6 % of control.

In the case of `Cc1c(C)c2c(c(C)c1O)CCC(C)(C(=O)O)O2` (stereo not shown) [Trolox], the “inhibition of H2O2-induced cell death” value in data set [4] (1 mM Trolox added 48 h before 0.25 mM H2O2) and in data set [4] (1 mM Trolox added at T3 after 0.25 mM H2O2) was “partially inhibited cell death induced by H2O2” each time.

Turning to “sAPPα: Secreted amyloid precursor protein-α, positive control [reference compound]”, in data set [5], the “neuronal axon outgrowth (mean axonal length)” value stood at 264.63±157.51 μm.
